5 compounds from patent US20050267169A1, “Watersoluble prodrugs of propofol” (priority 2002, published 2005) can be followed below.

The IC50 is the concentration at which inhibition is half-maximal.

Converted amounts (≈) assume the structure as drawn. Where a name gives a salt, the structure may show the parent alone. Marks after values point to notes of the source that are not given here.

One data set addresses GABAA receptor. Put plainly: In vitro [35S]TBPS binding assay, unwashed rat cortical membranes. Particulars: for IC50: unwashed rat brain (cortical) membranes. The method, then: The data is expressed as a percentage of binding measured in the presence of solvent and are means of two experiments.
Rats were killed by decapitation and their brains rapidly removed on ice. The cerebral cortex was dissected out and homogenized in 50 volumes of ice-cold 50 mM Tris-citrate buffer (pH 7.4 at 25° C.) containing 100 mM CaCl2 using a Polytron PT 10 (setting 5, for 20 sec) and centrifuged at 20.000×g for 20 min. The resulting pellet was resuspended in 50 volumes of 50 mM Tris-citrate buffer (pH 7.4 at 25° C.) and used for the assay. [^35S]TBPS binding was determined in a final volume of 500 μL consisting of. 200 μL of tissue homogenate (0.20-0.25 mg protein), 50 μL of [^35S]TBPS (final assay concentration of 1 nM), 50 μl 2 M NaCl, 50 μL of drugs or solvent and buffer to volume. Incubations (25° C.) were initiated by addition of tissue and terminated 90 min later by a rapid filtration through glass-fiber filter strips (Whatman GF/B, Clifton, N.J.), which were rinsed twice with a 4 mL portion of ice-cold Tris-citrate buffer using a Cell Harvester filtration manifold (model M-24m Brandel, Gaithersburg, Md.). Filter bound radioactivity was quantitated by liquid scintillation spectrometry. […] Protein content was determined by the method of Lowry^20 using bovine serum albumin as a standard.

A short description of data set [1]: Solubility in deionized water at 25° C. Type of data set: physicochemical. Particulars: 72 h equilibration; for solubility at 72 h: thermodynamic from solid, read-out: Solubility (mg/mL) in deionized water. The method, then: The resulting mixture was vortexed for 10 min and then mechanically shaken in a thermostatic bath shaker (100 rpm) for 72 h to attain equilibrium. Next, the mixture was filtered through a 0.45 μm membrane filter (Millipore®, cellulose acetate) and an aliquot was diluted with an appropriate amount of water and analyzed for the aminoacid ester prodrug content spectrophotometrically at 210 nm. All of the manipulations were made without removal of the test tubes from the water bath, using thermostated pipettes, syringes, and buffer solutions. In Table II, as shown below, solubility data is compared with the data previously determined for propofol derivatives 2a-c (Trapani G. Latrofa A, Franco M, Lopedota A, Maciocco E, Liso G. 1998. Water-soluble salts of amino acid esters of the anesthetic agent propofol. Int. J. Pharm. 175: 195-204.).

Data set [2] concerns pentylenetetrazole-induced seizures. Nature of the data set: Anticonvulsant activity against pentylenetetrazole-induced seizures. Format: in vivo, rat. Particulars: for Anticonvulsant activity, No. of rats protected/tested: pentylenetetrazole 55 mg/kg i.p. On the procedure:
The anticonvulsant activity against pentylenetetrazole-induced seizures (55 mg/kg) was measured.

The test system of the next data set is righting reflex. Put plainly: Anesthetic activity: loss of righting reflex. Format: in vivo, rat. Particulars: rats, i.p.; propofol and Diprivan 60 mg/kg, 6a 105 mg/kg (equimolar); mean ± s.e.m. On the procedure: The loss and reestablishment of righting responses, time of anesthesia induction, and sleeping time were also assessed. Rats (five per group) were treated with propofol and Diprivan®, both at a dose of 60 mg/kg, and an equimolar dose of compound 6a (105 mg/kg) and were continuously monitored for the loss of righting reflex (onset and duration). Propofol and its derivative 6a were dissolved in saline with a drop of Tween 80 per 5 mL and administered intraperitoneally in a volume of 0.3 mL per 100 g of body mass. Anesthesia induction (sleep onset) was defined as the time from drug administration to loss of righting reflex, whereas the sleeping time was the time from the loss of the righting reflex until the animals were plantigrade on all four legs. The significance of differences in behavioral data were analyzed by the ANOVA test.

The subject of another data set is porcine liver esterase. Put plainly: Hydrolysis in the presence of porcine liver esterase. Type of data set: in vitro ADME. As to conditions: for half-life: pig, porcine liver esterase, read-out: Half-lives at 37° C., Porcine liver esterase (13 U/mL) (converted); for half-life / Cleaved quantitatively to the parent drug in porcine liver esterase solution: 37° C. An excerpt: Hydrolysis of compounds 6a-d in the presence of porcine liver esterase was followed using a reported procedure (Bonina F P, Arenare L, Palagiano F, Saija A, Nava F, Trombetta D, De Caprariis P. 1998. Synthesis, stability, and pharmacological evaluation of nipecotic acid prodrugs. J. Pharm. Sci. 8: 561-567.).

Data set [3] concerns the target T1, human α1β2γ2 GABAA receptors (Homo sapiens, UniProt P14867+P18507+P47870).
T1 construct: expressed in transfected cells; host or cells: Xenopus laevis oocytes (nuclear injection of cDNAs in pCDM8)
Put plainly: Voltage-clamp electrophysiology in Xenopus laevis oocytes. Particulars: GABA EC20 (2-10 μM); for Effect on GABA-evoked chloride currents: concentration-dependent. Type of data set: cell-based. On the procedure:
Values are expressed as mean (6-13 different oocytes)±s.e.m. percentage of the potentiation of the control response to GABA (EC20, 2-10 μM).
Complementary DNAs encoding the human α1, β2, and γ2 GABAA receptor subunits were subcloned into the pCDM8 expression vector (Invitrogen, San Diego, Calif.). The cDNAs were purified with the Promega Wizard Plus Miniprep DNA Purification System (Madison, Wis.) and then resuspended in sterile distilled water, divided into portions, and stored at −20° C. until used for injection. Stage V and VI oocytes were manually isolated from sections of Xenopus laevis ovary, placed in modified Barth's saline (MBS) containing 88 mM NaCl, 1 mM KCl, 10 mM Hepes-NaOH buffer (pH 7.5), 0.82 mM MgSO4, 2.4 mM NaHCO3, 0.91 mM CaCl2, and 0.33 mM Ca(NO3)2 and treated with 0.5 mg/mL of collagenase Type IA (Sigma) in collagenase buffer (83 mM NaCl, 2 mM KCl, 1 mM MgCl2, 5 mM Hepes-NaOH buffer, pH 7.5) for 10 min at room temperature, to remove the follicular layer. A mixture of GABAA receptor α1, β2, and γ2 subunit cDNAs (1.5 ng/30 nL) was injected into the oocyte nucleus using a 10 μL glass micropipette (10-15 μm tip diameter). The injected oocytes were cultured at 19° C. in sterile MBS supplemented with streptomycin (10 μg/mL), penicillin (10 U/mL), gentamicin (50 μg/mL), 0.5 mM theophylline, and 2 mM sodium pyruvate. Electrophysiological recordings began approximately 24 h following cDNA injection. Oocytes were placed in a 100-μL rectangular chamber and continuously perfused with MBS solution at a flow rate of 2 mL/min at room temperature. The animal pole of oocytes was impaled with two glass electrodes (0.5 to 3 MΩ) filled with filtered 3 M KCl and the voltage was clamped at −70 mV with an Axoclamp 2-B amplifier (Axon Instruments, Burlingame, Calif.). Currents were continuously recorded on a strip-chart recorder. Resting membrane potential usually ranged from −30 to −50 mV. Drugs were perfused for 20 s (7-10 s were required to reach equilibrium in the recording chamber). Intervals of 5 to 10 min were allowed between drug applications.

A short description of data set [4]: Chemical hydrolysis in 0.05 M phosphate buffers at 37° C. Type of data set: physicochemical. As to conditions: phosphate buffer, pH 7.4, 0.05 M phosphate buffer pH 7.4, 37° C.; for half-life: read-out: Half-lives at 37° C., pH 7.4 buffer (converted). The method, then: The hydrolysis of the propofol esters 6a-d was studied in aqueous buffer solutions (0.05 M phosphate buffers; ionic strength of 0.5 maintained by adding a calculated amount of KCl) at pH values of 4, 6, and 7.4 and temperature of 37±0.2° C. The reactions were initiated by adding 100 μl of a stock solution of the ester (13 mg/mL methanol) to 20 mL of the buffer solution preheated at 37° C., in screw-capped test tubes (final concentration about 2.0×10^−4 M). The solutions were kept in a water bath at a constant temperature, and at appropriate intervals aliquots of 20 μL were withdrawn and analyzed by HPLC. Pseudo-first-order rate constants for the hydrolysis were determined from the slopes of linear plots of the logarithm of residual propofol ester against time.
The kinetics of hydrolysis of the derivatives 6a-d were determined in 0.05 M phosphate buffers at pHs 4.0, 6.0 and 7.4 at 37° C. as well as in rat serum solution and in the presence of porcine liver esterase.

The nature of data set [5]: Hydrolysis in phosphate buffer containing 50% rat serum at 37° C. Format: in vitro ADME. As to conditions: for half-life: 50% rat serum in phosphate buffer, 50% rat serum in pH 7.4 phosphate buffer, read-out: Half-lives at 37° C., 50% rat serum (converted); for Cleaved quantitatively to the parent drug in rat serum: rat serum solution. The method, then: Each reaction were initiated by adding 100 μL of the methanolic stock solution of compound under examination to 1.6 mL of preheated serum solution (final concentration about 1×10^−3 M) and the mixture was maintained in water bath at 37° C. At appropriate times, 100 μL samples were withdrawn and added to 500 μL of cold acetonitrile in order to deproteinize the serum. After mixing and centrifugation (10 min at 4000 rpm), 20 μL of the clear supematant were filtered through 0.2 μm membrane filter (Waters, PTFE 0.2 μm) and analyzed by HPLC.

Where [6] appears, read: propofol 40 mg/kg i.p. or equimolar dose.
Setting [7] is: unwashed rat cortical membranes.

T1 sequence (P14867 28-456): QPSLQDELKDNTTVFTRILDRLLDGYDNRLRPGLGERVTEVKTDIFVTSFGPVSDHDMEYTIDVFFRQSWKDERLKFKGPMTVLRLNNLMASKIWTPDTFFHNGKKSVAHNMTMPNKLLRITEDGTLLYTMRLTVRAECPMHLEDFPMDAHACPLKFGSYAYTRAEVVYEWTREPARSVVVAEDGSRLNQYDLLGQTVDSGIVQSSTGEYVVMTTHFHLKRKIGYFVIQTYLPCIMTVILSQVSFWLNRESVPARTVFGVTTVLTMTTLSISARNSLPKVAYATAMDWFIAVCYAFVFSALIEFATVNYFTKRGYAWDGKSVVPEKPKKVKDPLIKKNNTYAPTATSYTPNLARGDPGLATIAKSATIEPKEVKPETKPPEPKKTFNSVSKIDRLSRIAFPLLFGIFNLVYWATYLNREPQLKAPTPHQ
T1 sequence (P47870 25-512 limits assumed): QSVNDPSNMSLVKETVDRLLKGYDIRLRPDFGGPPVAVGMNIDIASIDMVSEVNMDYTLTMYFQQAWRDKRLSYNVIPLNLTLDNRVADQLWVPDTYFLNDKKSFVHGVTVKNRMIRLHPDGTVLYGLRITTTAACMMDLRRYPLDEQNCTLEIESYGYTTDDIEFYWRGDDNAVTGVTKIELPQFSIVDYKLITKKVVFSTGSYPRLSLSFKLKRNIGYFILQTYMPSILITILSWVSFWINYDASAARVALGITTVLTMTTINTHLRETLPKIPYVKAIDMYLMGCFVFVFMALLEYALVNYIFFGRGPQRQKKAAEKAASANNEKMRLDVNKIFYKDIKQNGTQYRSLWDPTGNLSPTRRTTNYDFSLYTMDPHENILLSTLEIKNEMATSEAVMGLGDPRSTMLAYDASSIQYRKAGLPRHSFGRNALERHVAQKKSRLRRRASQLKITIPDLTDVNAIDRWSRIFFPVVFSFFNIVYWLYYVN
T1 sequence (P18507 40-475): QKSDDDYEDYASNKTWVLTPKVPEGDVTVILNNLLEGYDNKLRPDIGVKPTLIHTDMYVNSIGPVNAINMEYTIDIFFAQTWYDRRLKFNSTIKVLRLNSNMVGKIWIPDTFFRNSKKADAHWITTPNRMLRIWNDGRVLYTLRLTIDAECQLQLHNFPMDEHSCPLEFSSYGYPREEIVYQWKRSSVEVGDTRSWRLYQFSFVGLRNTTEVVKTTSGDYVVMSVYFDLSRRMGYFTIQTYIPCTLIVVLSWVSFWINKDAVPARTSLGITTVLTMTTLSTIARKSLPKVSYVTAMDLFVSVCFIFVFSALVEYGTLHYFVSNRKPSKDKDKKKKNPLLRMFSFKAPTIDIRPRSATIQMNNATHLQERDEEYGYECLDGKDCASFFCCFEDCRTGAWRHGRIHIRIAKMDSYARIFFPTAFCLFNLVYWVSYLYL

Take `CC(C)c1cccc(C(C)C)c1O` [Compound 1, 2,6-diisopropylphenol, reference compound]: the IC50 on GABAA receptor stood at 4.17 µM. In addition, in data set [1], the solubility at 72 h was roughly 0.15 mg/mL (≈ 0.841 mM). In data set [2] (setting [6]), the “Anticonvulsant activity, No. of rats protected/tested” value is 10/10 and the “Protection of animals against pentylenetetrazole-induced convulsions” value (“Protection of animals” below) was “protected completely”. Further, in the data set on righting reflex, the “Loss of righting reflex, LRR, Duration” value amounted to 2245 ± 252 s and the “Loss of righting reflex, LRR, Onset” value is 114.4 ± 9.5 s.
Take `CC(C)c1cccc(C(C)C)c1OC(=O)[C@@H]1CCCN1` [Compound 6a, 2.6-diisopropylphenyl pirrolidin-2-carboxylate hydrochloride]: the half-life in the data set with porcine liver esterase (13 U/mL) was 0.283 h. The “Cleaved quantitatively to the parent drug in porcine liver esterase solution” value in the data set with porcine liver esterase was “cleaved quantitatively”. In data set [3], the “Concentration of maximal effect on GABA-evoked chloride currents” value turned out to be 50 µM and the “Effect on GABA-evoked chloride currents” value is listed as “enhanced”. This compound also returned an IC50 at GABAA receptor (hydrochloride) of 31.7 µM. The solubility at 72 h in data set [1] stood at 350 mg/mL. Further, in data set [2] (setting [6]), the “Anticonvulsant activity, No. of rats protected/tested” value was 10/10 and the “Protection of animals” value is “protected completely”. Besides, in the data set on righting reflex, the “Loss of righting reflex, LRR, Duration” value is 2403 ± 592 s and the “Loss of righting reflex, LRR, Onset” value is 162.7 ± 4.3^c,d sec. For the same compound, in data set [4], the half-life was 6 h. Further, in data set [5], the half-life is 0.283 h and the “Cleaved quantitatively to the parent drug in rat serum” value (shortened to “Cleaved quantitatively … in rat serum”) is “cleaved quantitatively”.
Turning to `CC(C)c1cccc(C(C)C)c1OC(=O)C1CCNCC1` [Compound 6d, propofol isonipecotate], the “Half-lives at 37° C., Porcine liver esterase (13 U/mL)” value with porcine liver esterase (13 U/mL) worked out at 45 h. For the same compound, the “Cleaved quantitatively to the parent drug in porcine liver esterase solution” value with porcine liver esterase is “not”. Also, in data set [3], the “Concentration of maximal effect on GABA-evoked chloride currents” value turned out to be 100 µM and the “Effect on GABA-evoked chloride currents” value was “diminished”. Moreover, the “Effect on [35S]TBPS binding” value with GABAA receptor (setting [7]) was “increase of [^35S]TBPS binding”. For the same compound, in data set [1], the “Solubility (mg/mL) in deionized water” value is reported as 29.7 mg/mL (≈ 103 mM). Moreover, the “Protection of animals” value in data set [2] (dose equimolar to 40 mg/kg propofol, i.p.) was 60%. In addition, in data set [2] (setting [6]), the “Anticonvulsant activity, No. of rats protected/tested” value was 6/10.
For the compound `CC(C)c1cccc(C(C)C)c1OC(=O)C1CCCCN1` (racemic) [Compound 6b, propofol pipecolinate], the half-life with porcine liver esterase (13 U/mL) was 0.217 h; in data set [4], 7 h; in data set [5], 0.0417 h. The “Cleaved quantitatively to the parent drug in porcine liver esterase solution” value in the data set on porcine liver esterase is “cleaved quantitatively”. The IC50 on GABAA receptor was determined as 39.5 µM. For the same compound, the solubility at 72 h in data set [1] is 13.4 mg/mL (≈ 46.3 mM). Also, the “Cleaved quantitatively … in rat serum” value in data set [5] is given as “cleaved quantitatively”.
For `CC(C)c1cccc(C(C)C)c1OC(=O)C1CCCNC1` (racemic) [Compound 6c], in the data set with porcine liver esterase (13 U/mL), the half-life was 3 h. Also, the “Cleaved quantitatively to the parent drug in porcine liver esterase solution” value in the data set with porcine liver esterase is listed as “not”. Besides, the IC50 at GABAA receptor is 152 µM. Moreover, the “Doses at which [35S]TBPS binding is reduced” value in the data set with GABAA receptor (setting [7]) is recorded as “higher than 100 μM”. In data set [1], the solubility at 72 h is 525 mg/mL (≈ 1810 mM). Also, the half-life at 48 h in data set [4] (read-out: Half-lives at 37° C., pH 7.4 buffer (stability class)) is greater than 48 h. In data set [5], the half-life is 6 h and the “Cleaved quantitatively … in rat serum” value is given as “not”.
